Values of other authors, collected in US20250099360A1 (Goodier Cosmetics, LLC, priority 2023, published 2025).

System: UV-B-induced lipid peroxidation
Conditions: UV-B radiation

effect on UV-B-induced lipid peroxidation: promotes UV-B-induced lipid peroxidation
SMILES: CCCCCCCCCCCCCCCC(=O)OC[C@H](O)[C@H]1OC(=O)C(O)=C1O [ascorbyl palmitate]
